“Also recorded” adds a separate entry of the source. Marks after values point to notes of the source that are not given here.
Legend:
[1] = test system: TgCRND8 mice; assay: Vascular amyloid burden; assay type: in vivo, mouse; conditions: compared to untreated and epi-inositol treated
Procedure: (§1) Cerebral amyloid burden. Brains were removed and one hemisphere was fixed in 4% paraformaldehyde and embedded in paraffin wax in the mid sagittal plane. To generate sets of systematic uniform random sections, 5 μm serial sections were collected across the entire hemisphere. Sets of sections at 50 μm intervals were used for analyses (10-14 sections/set). Plaques were identified after antigen retrieval with formic acid, and incubation with primary anti-Aβ antibody (Dako M-0872), followed by secondary antibody (Dako StreptABCcomplex/horseradish kit). End products were visualized with DAB and were counter-stained with luxol fast blue. Amyloid plaque burden was assessed with Leco IA-3001 image analysis software interfaced with Leica microscope and Hitachi KP-M1U CCD video camera. Openlab imaging software (Improvision, Lexington, Mass.) was then used to convert micrographs to binary images for plaque number and plaque area determinations. Vascular amyloid burden was defined as amyloid originating from or surrounding blood vessels and was analysed similarly.

[2] = test system: TgCRND8 mice; assay: Morris Water Maze spatial reference memory test; assay type: in vivo, mouse
Procedure: (§2) Behavioural tests: Morris Water Maze testing was performed as previously described. After non-spatial pre-training, mice underwent place discrimination training for 5 days with 4-trials per day, followed by a cued visible platform to rule out general motivational, learning deficits and motor problems, and a probe trial to evaluate memory. […] Open field test for motor activity was preformed as described previously. Duration of walking, pausing and grooming were analyzed as indices of spontaneous locomotor activity. Sensorimotor function was examined with an Economex™ accelerating rotarod (Columbus Instruments, Columbus, Ohio), as described elsewhere. The rod was set to accelerate at a rate of 0.2 r.p.m./s, from an initial, constant speed of 5 r.p.m. Latency to fall was recorded in four daily trials, conducted at 30 min intervals. All mice were trained for seven days before testing. The test day performance score for each animal was obtained by summing its latency to fall over the four trials
Behavioural tests: Behavioural analyses were performed using the Morris Water Maze test (13, 14). After pre-spatial training, mice underwent place discrimination training for 5 days with 4 trials per day, followed by a cued visible platform to rule out general motivational, learning deficits and motor problems. […] Open field test for motor activity was performed as described previously. Duration of walking, pausing, rearing and grooming were analyzed as indices of spontaneous locomotor activity.

[3] = test system: LTP in mouse hippocampal slices; assay: Long term potentiation in hippocampal slices with 7PA2 conditioned medium; assay type: cell-based; conditions: compound treated culture media from plain CHO cells
Procedure: Long Term Potentiation. […] Swiss Webster mice between the ages of P16 and P26 were anesthetized with isoflurane. […] The hippocampus from each hemisphere was isolated and 350 μm coronal sections were made. […] Once placed in the chamber, slices were continuously perfused by a closed loop containing 15 ml of ACSF to conserve the oligomeric Aβ. […] A bipolar stimulating electrode (World Precision Inst.) was placed in the Schaffer collaterals to deliver baseline stimuli and tetani. A borosilicate glass recording electrode (2-4 MΩ) containing ACSF was positioned approximately 75-200 μm from the stimulating electrode. […] Test stimuli were delivered at 0.05 Hz. To induce LTP, 4 tetani (100 Hz for 1 second) were delivered 5 minutes apart. Field potential responses were amplified 10× using an Axopatch 200B. The data was sampled at 10 kHz and filtered at 2 kHz. Traces were analyzed using pClamp 9.2. The slope of the field potential was estimated using approximately 10-60% of the total response.

[4] = test system: TgCRND8 mice; assay: Accelerating rotarod sensorimotor function; assay type: in vivo, mouse; conditions: treated versus untreated TgCRND8 mice
Procedure: as §2

[5] = target: T1, Aβ40 (Homo sapiens, UniProt P05067); assay: Cerebral Aβ content: brain Aβ40 (ELISA kit); assay type: in vivo, mouse; conditions: TgCRND8 mice with pre-existing disease; 28 day treatment from 5 months of age
T1 construct: from tissue; host or cells: hemi-brain homogenate of TgCRND8 transgenic mice
T1 sequence (P05067 672-711): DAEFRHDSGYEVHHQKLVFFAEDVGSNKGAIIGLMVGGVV
Procedure: (§3) Plasma and Cerebral Aβ Content. Hemi-brain samples were homogenized in a buffered sucrose solution, followed by either 0.4% diethylamine/100 mM NaCl for soluble Aβ levels or cold formic acid for the isolation of total Aβ. After neutralization, the samples were diluted and analyzed for Aβ40 and Aβ42 using commercially available kits (BIOSOURCE International). Each hemisphere was analyzed in triplicate and the mean values±SEM reported. Western blot analyses were performed on all fractions using urea gels for Aβ species analyses. Aβ was detected using 6E10 (BIOSOURCE International) and Enhanced Chemiluminenscence (Amersham).
(§4) Cerebral Aβ Content. Hemi-brain samples were homogenized in a buffered sucrose solution, followed by either 0.4% diethylamine/100 mM NaCl for soluble Aβ levels or cold formic acid for the isolation of total Aβ [22]. After neutralization the samples were diluted and analyzed for Aβ40 and Aβ42 using commercially available kits (BIOSOURCE International). Each hemisphere was analyzed in triplicate with the mean±SEM reported. Plasma was diluted and run directly on the ELISA.

[6] = test system: TgCRND8 mice; assay: Cerebral amyloid plaque burden (anti-Aβ immunostaining, image analysis); assay type: in vivo, mouse
Procedure: as §1

[7] = target: T2, Aβ42 (Homo sapiens, UniProt P05067); assay: Cerebral Aβ content: brain Aβ42 (ELISA kit); assay type: in vivo, mouse; design: from tissue; host or cells: hemi-brain homogenate of TgCRND8 transgenic mice; conditions: TgCRND8 mice with pre-existing disease; 28 day treatment from 5 months of age
Procedure: as §3, §4
Target sequence in this assay (P05067 672-713 limits assumed): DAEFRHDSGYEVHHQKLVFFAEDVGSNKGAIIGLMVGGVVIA

[8] = target: T2, Aβ42; assay: Plasma Aβ42 levels; assay type: in vivo, mouse; design: from tissue; host or cells: plasma of TgCRND8 transgenic mice; conditions: TgCRND8 mice following 28 days of therapy at five months of age
Procedure: as §3, §4
Target sequence in this assay (P05067 672-713): as the sequence (P05067 672-713 limits assumed) above

[9] = test system: TgCRND8 mice; assay: Gliosis quantitation (GFAP astrocytes, CD68 microglia); assay type: in vivo, mouse
Procedure: Gliosis Quantitation. Five randomly selected, evenly spaced, sagittal sections were collected from paraformaldehyde-fixed and frozen hemispheres of treated and control mice. Sections were immunolabelled for astrocytes with anti-rat GFAP IgG2a (Dako; diluted 1:50) and for microglia with anti-rat CD68 IgG2b (Dako; 1:50). Digital images were captured using a Coolsnap digital camera (Photometrics, Tuscon, Ariz.) mounted to a Zeiss, Axioscope 2 Plus microscope. Images were analysed using Openlab 3.08 imaging software (Improvision, Lexington Mass.).

[10] = test system: TgTauP301L mice; assay: Synaptophysin reactivity in TgTauP301L mice; assay type: in vivo, mouse; conditions: TgTauP301L mice after treatment
Procedure: Synaptophysin immunohistochemical staining was performed on 3 evenly spaced saggital sections of paraformaldehyde-fixed treated and control mice. Sections were immunolabelled for synaptophysin with anti-synaptophysin IgG (1:40; Roche, Laval, PQ). Digital images were captured and analyzed as described above. Within each section, three randomly chosen 100 μm^2 areas of the CA1 region of the hippocampus were counted for synaptophysin reactive cell bodies and boutons. The results are expressed as the mean of the number of reactive bodies and boutons per 100 μm^2 [29, 30].

[11] = test system: TgCRND8 mice; assay: Survival census (Kaplan-Meier); assay type: in vivo, mouse; conditions: compared to untreated TgCRND8 mice
Procedure: (§5) Survival Census: The probability of survival was assessed by the Kaplan-Meier technique, computing the probability of survival at every occurrence of death, thus making it suitable for small sample sizes. For the analyses of survival, 35 mice were used for each treatment group. The Tarone-Ware test was used to assess effects of treatments.
as §5, with “technique” for “technique,”, “30” for “35”

[12] = six month old TgCRND8 mice, 28 days of oral treatment beginning at five months of age
[13] = TgCRND8 mice, 4-month Prophylactic (oral from 6 weeks to 4 months of age)
[14] = TgCRND8 mice, 6-month Prophylactic (oral from 6 weeks to 6 months of age)
[15] = TgCRND8 mice, 28 day course at 5 months of age, vs untreated
[16] = TgCRND8 mice, oral treatment for 28 days (1 month) from 5 months of age, analysed at 6 months

## O[C@H]1[C@H](O)[C@@H](O)[C@H](O)[C@@H](O)[C@@H]1O [scyllo-cyclohexanehexol, 1,3,5/2,4,6-(scyllo-)cyclohexanehexol]
[1]
  total vascular Aβ load: significantly decreased the total vascular load
[2]; TgCRND8 mice, administered for 2 months, ending at 7 months of age
  effects on cognition and pathology: Sustained effects both on cognition and pathology were observed
[2]; mouse, in vivo
  Non-Tg littermate behaviour under treatment: not affected
[2]; prophylactic treatment, four months of age
  cognition compared to non-Tg mice: approached that of non-Tg mice
[2]; separate cohort of TgCRND8 mice, compared to non-Tg littermates, data not shown
  probe trial, % time in target quadrant: not statistically different from non-Tg littermates
[2]; [12]
  spatial reference memory performance compared to non-Tg littermates: indistinguishable from that of their non-Tg littermates
  spatial reference memory performance compared to untreated TgCRND8 littermates: significantly better behavioural performance compared to untreated TgCRND8 mice; also recorded: significantly better than untreated TgCRND8 littermates
[3]
  direct effect on LTP: no direct effect on LTP
[4]
  Rotarod sensorimotor function: no difference
[5]
  effect on brain Aβ40 levels: reduced brain levels of Aβ40 and Aβ42
[6]; TgCRND8 mice at six months of age, hippocampus and cerebral cortex
  amyloid (plaque) burden, immunostaining: significantly decreased amyloid burden and gliosis
[6]; TgCRND8 mice with pre-existing disease, one month treatment from 5 months of age
  plaque burden (percent area of the brain covered with plaques, plaque number): lower plaque burden
[6]; [13]
  Mean Plaque Size: 103 ± 4* μm^2
  Total Plaque Area: 63847 ± 2895 μm^2
[6]; [14]
  Mean Plaque Size: 339 ± 10† μm^2
  Total Plaque Area: 262379 ± 5373† μm^2
[6]; [15]
  percent area of the brain covered by plaques reduction: 14±0.5%
  plaque number reduction: 13±0.3%
  plaque size reduction: 16±0.4%
[6]; [16]
  Mean Plaque Size: 336 ± 6* μm^2
  Total Plaque Area: 420027 ± 14986* μm^2
[7]
  effect on brain Aβ42 levels: reduced brain levels of Aβ40 and Aβ42
[8]
  Plasma Aβ42 levels: 990 ± 73 pg/mL
[9]; TgCRND8 mice
  percent brain area covered with microgliosis: decreased the percent brain area covered with microgliosis
[9]; TgCRND8 mice at six months of age
  astrogliosis / gliosis, anti-GFAP immunostaining: significantly decreased amyloid burden and gliosis
[9]; TgCRND8 mice, 4- and 6-months of age
  percent brain area covered in astrogliosis: decreased the astrogliotic response to a greater extent at both ages
[10]
  synaptophysin reactivity: unchanged
[11]
  Kaplan Meier cumulative survival: increased survival
